The record followed here is US20240368120A1 (Terns Pharmaceuticals, Inc., priority 2023, published 2024).

This test addresses T1, human GLP-1R receptor (Homo sapiens, UniProt P43220).
T1 construct: expressed in transfected cells
As to the kind of experiment: GLP-1R low expression cell assay (cAMP TR-FRET, CHO-K1_hGLP-1Rlow_clone10 cells). It counts as cell-based. Particulars: for EC50: cAMP TR-FRET, 30 min at 25° C. A digest of the protocol: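 CHO-K1 cells stably expressing low surface human GLP-1R (clone10), 1,000 cells/well, exposed to 10-point 3-fold compound dilutions for 30 min at 25 °C. cAMP measured by TR-FRET (Eu-cAMP tracer/ULight-anti-cAMP, 15 min). EC50 from Hill fit of duplicate percent activation relative to a parallel GLP-1 control agonist.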
On the technique in general: In TR-FRET formats the signal depends on donor and acceptor labels being close together.

The mark [1] stands for this setting: maximum activation relative to control GLP-1 peptide agonist.

SMILES strings stand for the structures. Bounds are passed on as bounds.

T1 sequence (P43220 24-463): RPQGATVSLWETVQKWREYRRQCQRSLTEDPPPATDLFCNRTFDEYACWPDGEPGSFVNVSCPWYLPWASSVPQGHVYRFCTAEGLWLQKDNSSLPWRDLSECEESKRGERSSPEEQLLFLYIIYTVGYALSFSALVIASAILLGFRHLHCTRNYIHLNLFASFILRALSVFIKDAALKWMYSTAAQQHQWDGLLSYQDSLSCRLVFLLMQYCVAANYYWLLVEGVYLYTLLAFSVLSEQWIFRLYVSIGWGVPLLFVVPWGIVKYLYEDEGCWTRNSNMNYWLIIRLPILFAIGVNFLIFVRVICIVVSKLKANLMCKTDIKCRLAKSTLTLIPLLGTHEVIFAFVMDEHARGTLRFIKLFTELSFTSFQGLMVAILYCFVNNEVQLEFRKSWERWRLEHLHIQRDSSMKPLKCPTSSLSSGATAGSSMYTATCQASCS

`COc1c(F)c(C(=O)O)cc2nc(CN3CCC(c4cccc(OCc5ccc(C#N)cc5F)n4)CC3)n(C)c12` [Compound 336, 2-((4-(6-((4-Cyano-2-fluorobenzyl)oxy)pyridin-2-yl)piperidin-1-yl)methyl)-6-fluoro-7-methoxy-1-methyl-1H-benzo[d]imidazole-5-carboxylic acid]: the EC50 – broadly, the midpoint of the concentration-response curve – is above 1000 nM. In addition, the Emax (as a rule, the size of the effect at its maximum, as opposed to the concentration needed) under setting [1] is below 25%.

`Cn1c(CN2CCC(Oc3cccc(COc4ccc(C#N)cc4F)n3)CC2)nc2c(OC(F)F)cc(C(=O)O)cc21` [Compound 149, 2-((4-((6-((4-Cyano-2-fluorophenoxy)methyl)pyridin-2-yl)oxy)piperidin-1-yl)methyl)-4-(difluoromethoxy)-1-methyl-1H-benzo[d]imidazole-6-carboxylic acid] had an EC50 of 10 to 100 nM. Under setting [1], this compound had an Emax above 85%.

Compound `CC(CF)Oc1cc(C(=O)O)cc2c1nc(CN1CCC(c3cccc(OCc4ccc(Cl)cc4F)n3)CC1)n2C` (single isomer, unassigned) [Compound 263] yielded an EC50 below 10 nM. For the same compound, under setting [1], the “GLP-1R Low Expression Cell Assay Emax (%)” value was “++++ (Emax is >85%)”.

For `Cn1c(CN2CCC(c3ncc(F)c(OCc4ccc(Cl)cc4F)n3)CC2)nc2c(OC(F)F)cc(C(=O)O)cc21` [Compound 356, 2-((4-(4-((4-Chloro-2-fluorobenzyl)oxy)-5-fluoropyrimidin-2-yl)piperidin-1-yl)methyl)-4-(difluoromethoxy)-1-methyl-1H-benzo[d]imidazole-6-carboxylic acid], the EC50 lay in the range of 10 to 100 nM. Besides, under setting [1], the maximal effect (Emax) is above 85%.

As to `C[C@]1(c2ccc(Cl)cn2)Oc2cccc(C3CCN(Cc4nc5cc(C(=O)O)cc6c5n4CCO6)CC3)c2O1` [Compound 75, (S)-2-((4-(2-(5-chloropyridin-2-yl)-2-methylbenzo[d][1,3]dioxol-4-yl)piperidin-1-yl)methyl)-3,4-dihydro-5-oxa-1,2a-diazaacenaphthylene-7-carboxylic acid], the EC50 was above 1000 nM. The compound also gave an Emax under setting [1] below 25%.

Compound `CN(c1nc2c(OC(F)F)cc(C(=O)O)cc2n1C[C@@H]1CCO1)[C@H]1CC[C@@H](c2cccc(OCc3ccc(C#N)cc3F)n2)CC1` [Compound 131, 2-(((1s,4R)-4-(6-((4-cyano-2-fluorobenzyl)oxy)pyridin-2-yl)cyclohexyl) (methyl)amino)-4-(difluoromethoxy)-1-(((S)-oxetan-2-yl)methyl)-1H-benzo[d]imidazole-6-carboxylic acid] displayed an EC50 of 100 to 1000 nM. Besides, the Emax under setting [1] was above 85%.

In turn, `COc1cc(C(=O)O)cc2c1nc(CN1CCC(c3cccc4c3O[C@H](c3ccc(C#N)cc3F)CO4)CC1)n2C` [Compound 310, (R)-2-((4-(3-(4-cyano-2-fluorophenyl)-2,3-dihydrobenzo[b][1,4]dioxin-5-yl)piperidin-1-yl)methyl)-4-methoxy-1-methyl-1H-benzo[d]imidazole-6-carboxylic acid] registered an EC50 of 10 to 100 nM. This compound showed an Emax under setting [1] above 85%.

Consider `Cn1c(CN2CCC(c3cccc(OCc4ccc(C(F)F)cc4F)n3)CC2)nc2c(OC(F)F)cc(C(=O)O)cc21` [Compound 201, 4-(Difluoromethoxy)-2-((4-(6-((4-(difluoromethyl)-2-fluorobenzyl)oxy)pyridin-2-yl)piperidin-1-yl)methyl)-1-methyl-1H-benzo[d]imidazole-6-carboxylic acid], for which the EC50 was 10 to 100 nM. This compound also yielded an Emax under setting [1] above 85%.

In turn, `Cn1c(CN2CCC(c3cccc(OCc4ccc(OC(F)F)cc4F)n3)CC2)nc2c(OC(F)F)cc(C(=O)O)cc21` [Compound 221, 4-(Difluoromethoxy)-2-((4-(6-((4-(difluoromethoxy)-2-fluorobenzyl)oxy)pyridin-2-yl)piperidin-1-yl)methyl)-1-methyl-1H-benzo[d]imidazole-6-carboxylic acid] displayed an EC50 of 10 to 100 nM. Also, the Emax under setting [1] was above 85%.

In the case of `Cn1c(CN2CCC(c3cccc4c3OC[C@H](c3ccc(C#N)cc3F)O4)CC2)nc2c(OC(F)F)cc(C(=O)O)cc21` [Compound 326, (S)-2-((4-(2-(4-Cyano-2-fluorophenyl)-2,3-dihydrobenzo[b][1,4]dioxin-5-yl)piperidin-1-yl)methyl)-4-(difluoromethoxy)-1-methyl-1H-benzo[d]imidazole-6-carboxylic acid], the EC50 was above 1000 nM. The compound also came in with an Emax under setting [1] below 25%.

As for `COc1cc(C(=O)O)cc2c1nc(CN1CCC(c3cccc4c3OC[C@@H](c3ccc(C#N)cc3F)O4)CC1)n2C` [Compound 278, (R)-2-((4-(2-(4-Cyano-2-fluorophenyl)-2,3-dihydrobenzo[b][1,4]dioxin-5-yl)piperidin-1-yl)methyl)-4-methoxy-1-methyl-1H-benzo[d]imidazole-6-carboxylic acid], the EC50 is 100 to 1000 nM. The compound also came in with an Emax under setting [1] above 85%.

`Cn1c(CN2CCC(c3cccc(OCc4ccc(C#N)cn4)n3)CC2)nc2c(OC(F)F)cc(C(=O)O)cc21` [Compound 213, 2-((4-(6-((5-Cyanopyridin-2-yl)methoxy)pyridin-2-yl)piperidin-1-yl)methyl)-4-(difluoromethoxy)-1-methyl-1H-benzo[d]imidazole-6-carboxylic acid]: the concentration giving a half-maximal response (EC50) was in the range of 100 to 1000 nM. The Emax under setting [1] is above 85%.

Take `N#Cc1ccc(COc2cccc(C3CCN(Cc4nc5c(N)nc(C(=O)O)cc5n4C[C@@H]4CCO4)CC3)n2)c(F)c1` [Compound 134, (S)-4-amino-2-((4-(6-((4-cyano-2-fluorobenzyl)oxy)pyridin-2-yl)piperidin-1-yl)methyl)-1-(oxetan-2-ylmethyl)-1H-imidazo[4,5-c]pyridine-6-carboxylic acid]: the EC50 was in the range of 10 to 100 nM. Besides, under setting [1], the Emax was above 85%.

`Cn1c(CN2CCC(c3ncccc3OCc3ccc(C#N)cc3F)CC2)nc2c(OC(F)F)cc(C(=O)O)cc21` [Compound 158, 2-((4-(3-((4-Cyano-2-fluorobenzyl)oxy)pyridin-2-yl)piperidin-1-yl)methyl)-4-(difluoromethoxy)-1-methyl-1H-benzo[d]imidazole-6-carboxylic acid]: the EC50 is above 1000 nM. Moreover, the Emax under setting [1] lay in the range of 50 to 85%.

Take `Cn1c(CN2CCC(Oc3cccc(Cc4ccc(C#N)cc4F)n3)CC2)nc2c(OC(F)F)cc(C(=O)O)cc21` [Compound 157, 2-((4-((6-(4-Cyano-2-fluorobenzyl)pyridin-2-yl)oxy)piperidin-1-yl)methyl)-4-(difluoromethoxy)-1-methyl-1H-benzo[d]imidazole-6-carboxylic acid]: the EC50 lay in the range of 100 to 1000 nM. The Emax under setting [1] is above 85%.

Compound `Cn1c(CN2CCC(c3cccc(OCc4ccc(C#N)cc4F)n3)CC2)nc2c(Oc3ccc(F)cc3)cc(C(=O)O)cc21` [Compound 352, 2-((4-(6-((4-Cyano-2-fluorobenzyl)oxy)pyridin-2-yl)piperidin-1-yl)methyl)-4-(4-fluorophenoxy)-1-methyl-1H-benzo[d]imidazole-6-carboxylic acid] had an EC50 of 100 to 1000 nM. In addition, the Emax under setting [1] was above 85%.

In turn, `COc1cc(C(=O)O)cc2c1nc(CN1CCC(c3cccc(OCc4ccc(Cl)cc4F)n3)CC1)n2CF` [Compound 209, 2-((4-(6-((4-Chloro-2-fluorobenzyl)oxy)pyridin-2-yl)piperidin-1-yl)methyl)-1-(fluoromethyl)-4-methoxy-1H-benzo[d]imidazole-6-carboxylic acid] had an EC50 of 10 to 100 nM. This compound also came in with an Emax under setting [1] above 85%.

`CC(=O)Nc1cc(C(=O)O)cc2c1nc(CN1CCC(c3cccc(OCc4ccc(C#N)cc4F)n3)CC1)n2C` [Compound 116, 4-acetamido-2-((4-(6-((4-cyano-2-fluorobenzyl)oxy)pyridin-2-yl)piperidin-1-yl)methyl)-1-methyl-1H-benzo[d]imidazole-6-carboxylic acid] gave an EC50 of 10 to 100 nM. Besides, under setting [1], the Emax is above 85%.

As for `COc1cc(C(=O)O)nc2c1nc(CN1CCC(c3cccc(OCc4ccc(Cl)cc4F)n3)CC1)n2C` [Compound 324, 2-((4-(6-((4-Chloro-2-fluorobenzyl)oxy)pyridin-2-yl)piperidin-1-yl)methyl)-7-methoxy-3-methyl-3H-imidazo[4,5-b]pyridine-5-carboxylic acid], the EC50 fell in the range of 10 to 100 nM. Under setting [1], the Emax was above 85%.

Consider `COc1ccc(C2CCN(Cc3nc4c(OC(F)F)cc(C(=O)O)cc4n3C)CC2)cc1OCc1ccc(Cl)cc1F` [Compound 230, 2-((4-(3-((4-Chloro-2-fluorobenzyl)oxy)-4-methoxyphenyl)piperidin-1-yl)methyl)-4-(difluoromethoxy)-1-methyl-1H-benzo[d]imidazole-6-carboxylic acid], for which the EC50 is above 1000 nM. This compound also returned an Emax under setting [1] below 25%.

In the case of `CCOc1cc(C(=O)O)cc2c1nc(CN1CCC(c3cccc4c3O[C@H](c3ccc(C#N)cc3F)CO4)CC1)n2C` [Compound 288, (R)-2-((4-(3-(4-Cyano-2-fluorophenyl)-2,3-dihydrobenzo[b][1,4]dioxin-5-yl)piperidin-1-yl)methyl)-4-ethoxy-1-methyl-1H-benzo[d]imidazole-6-carboxylic acid], the EC50 is 10 to 100 nM. Further, the Emax under setting [1] is above 85%.

`O=C(O)c1cc(OC(F)F)c2nc(CN3CCC(c4cccc(OCc5ccc(Cl)cc5F)n4)CC3)n(C3CC3)c2c1` [Compound 199, 2-((4-(6-((4-Chloro-2-fluorobenzyl)oxy)pyridin-2-yl)piperidin-1-yl)methyl)-1-cyclopropyl-4-(difluoromethoxy)-1H-benzo[d]imidazole-6-carboxylic acid] returned an EC50 of 10 to 100 nM. Under setting [1], the Emax is above 85%.

On to `Cn1c(CN2CCC(c3cccc(OCc4ccc(Cl)cc4F)n3)CC2)nc2c(NCCF)cc(C(=O)O)cc21` [Compound 186, 2-((4-(6-((4-Chloro-2-fluorobenzyl)oxy)pyridin-2-yl)piperidin-1-yl)methyl)-4-((2-fluoroethyl)amino)-1-methyl-1H-benzo[d]imidazole-6-carboxylic acid], for which the concentration for a half-maximal effect (EC50) is 100 to 1000 nM. Besides, the Emax under setting [1] is above 85%.
